Experimental data published in patent publication US20170020798A1, “HESPERIDIN-CONTAINING COMPOSITIONS AND METHODS FOR TREATMENT OF SKIN DISORDERS” (The Regents of the University of California, priority 2015, published 2017).
Where a name gives a salt, the structure may show the parent alone.

Tests used:
[1] = tested on: aged murine skin; experiment: Epidermal function after topical hesperidin in aged mice (TEWL, barrier recovery, SC hydration, skin surface pH); assay type: in vivo, mouse
Protocol: (§1) All animal procedures were approved by the Animal Studies Subcommittee (IACUC) of the San Francisco Veterans Administration Medical Center and performed in accordance with their guidelines. Since hesperidin is not soluble in 100% ethanol, 70% ethanol was used as vehicle. Since the turnover time for […] is about 9.5 days in normal young mice, we chose to treat aged mice for 9 days. Both flanks of 12-15 month old mice were treated topically with 60 μl of 2% hesperidin or 70% ethanol twice daily for 9 days. Basal epidermal permeability barrier function was assessed by measuring transepidermal water loss (TEWL) using TM300 connected to MPA5 (C&K, Cologne, Germany). For barrier recovery, TEWL was measured using an electrolytic water analyzer (Meeco, Warrington, Pa.) at 0, 2 and 4 hours after tape stripping (10-fold increase in TEWL), and percent barrier recovery was calculated.

[2] = tested on: aged epidermis; experiment: Gross appearance, histology and PCNA staining of aged mouse epidermis; assay type: in vivo; conditions: aged mice, 2% hesperidin topically twice daily for 9 days; NS vs. vehicle
Protocol: as §1
Immunohistochemical staining for assessing changes in epidermal differentiation was performed as follows. Briefly, 5 μm paraffin sections were incubated with the primary antibodies (Covance, Emeryville, Calif.) overnight at 4° C. […] Staining was detected with ABC-peroxidase kit from Vector Lab (Burlingame, Calif.). Sections were examined with a Zeiss fluorescence microscope (Jena, Germany) and digital images were captured with AxioVision software (Carl Zeiss Vision, Munich, Germany).

[3] = tested on: aged mouse epidermis; experiment: Q-PCR for mRNA expression in aged mouse epidermis; assay type: in vivo
[4] = tested on: keratinocytes isolated from adult human (donor aged 60-65 year old); experiment: Q-PCR for mRNA expression in adult human keratinocyte cultures; assay type: cell-based; conditions: 0.02% hesperidin
Protocol: Second-passage keratinocytes isolated from adult human (donor aged 60-65 year old) were cultured in serum-free keratinocyte growth medium containing 0.07 mM calcium (Clonetics, San Diego, Calif.). Cells at 60%-70% confluence were switched to a medium containing 1.2 mM calcium and treated with either 0.02% hesperidin or vehicle alone (0.02% ethanol). After 24 and 48 hrs of treatment, keratinocytes were collected for Q-PCR analysis.
Total RNA was isolated from cultured human keratinocytes using TRI Reagent (Sigma). First strand cDNA was synthesized from 1 ug of total RNA with the iScript cDNA Synthesis Kit (Bio-Rad, Hercules, Calif.). The real-time PCR contained 20 ng of reversed transcribed total RNA, 450 nM forward and reverse primers, and 10 μl of 2× LightCycler 480 SYBR Green I Master in a final volume of 20 μl in 96-well plates using Mx3000PTM Real-time PCR System (Stratagene, La Jolla, Calif.). Quantification was performed by the comparative CT method with 36B4 or Cyclophilin A used for normalization. The primers for lipid synthetic enzymes such as 3-hydroxy-3-methyl-glutaryl-CoA reductase (HMGCoA), serine-palmitoyl transferase 1 (SPT1), fatty acid synthase (FAS), lipid transporters (ATP-binding cassette A12 (ABCA12)), mouse beta defensin 3 (mBD3), sodium-hydrogen exchanger 1 (NHE1), secretary phospholipase A2g2f (sPLA2g2f), filaggrin, involucrin, loricrin and Cyclophilin A are listed in Primer Table 2. Relative expression of the mRNAs compared to control mRNA was calculated. Data are expressed as percentage of control (as 100%).

[5] = tested on: aged epidermis; experiment: Lamellar body density and secretion (electron microscopy); assay type: in vivo, mouse
From the text: Skin biopsies from both vehicle and hesperidin-treated mice were taken for electron microscopy. Briefly, samples were minced to <0.5 mm^3, fixed in modified Karnovsky's fixative overnight, and post-fixed in either 0.2% ruthenium tetroxide or 1% aqueous osmium tetroxide, containing 1.5% potassium ferrocyanide. After fixation, all samples were dehydrated in a graded ethanol series, and embedded in an Epon-epoxy mixture. Ultrathin sections were examined, with or without further contrasting with lead citrate, in a Zeiss 10A electron microscope (Carl Zeiss, Thornwood, N.J.), operated at 60 kV.
LB numbers were determined in granular cells two to three layers below the stratum granulosum-stratum corneum (SG-SC) junction as previously described. The number of LBs was counted at 4800 magnification using a calibrated grid. Total 10 random pictures from each biopsy sample were assessed. For quantification of LB secretion, number of LB protrusion at the SG-SC junction were measured at a magnification of 5800 and correlated with the length of the bottom surface of the first SC layer on 10 random images at 5800 magnification.

[6] = tested on: GC-induced epidermal side effects; experiment: Hesperidin co-applications with glucocorticoid (GC): prevention of GC-induced epidermal side effects; assay type: in vivo
[7] = tested on: murine skin; experiment: Epidermal mRNA levels of antioxidant enzymes after topical hesperidin; assay type: in vivo; conditions: topical hesperidin applications
[8] = tested on: aged mice; experiment: Cholesterol-dominant lipid mixture plus hesperidin on aged mice; assay type: in vivo, mouse; conditions: 2% hesperidin added to the triple lipid mixture, 18-month old mice, twice daily for 7 days
Protocol: The composition includes a cholesterol-dominant lipid mixture plus hesperidin for the use on aged mice: 18-Month old mice were divided into groups of untreated, lipid mixture+vehicle (70% ethanol) treated, and lipid mixture+2% hesperidin treated. Mice are treated twice daily for 7 days. All measurements are carried out with a MPA5 physiology monitor. Lipid mixture contained cholesterol, fatty acid and ceramide (3:1:1 molar ratio, with cholesterol at 3 moles) at a concentration of 0.74 wt %. Data are normalized to untreated control, setting untreated as 100%.

[9] = tested on: young normal murine skin; experiment: Topical hesperidin on young normal murine skin; assay type: in vivo
[10] = Solubility of hesperidin in ethanol; assay type: physicochemical; conditions: 100% ethanol
[11] = cited from earlier work
[12] = tested on: normal epidermis; conditions: applied to normal epidermis; cited from earlier work
[13] = aged epidermis, topical hesperidin, Q-PCR
[14] = aged mouse epidermis, topical hesperidin
[15] = aged mouse epidermis, topical hesperidin, Q-PCR
[16] = aged human keratinocyte cultures
[17] = hesperidin co-applications with GC

For COc1ccc([C@@H]2CC(=O)c3c(O)cc(O[C@@H]4O[C@H](CO[C@@H]5O[C@@H](C)[C@H](O)[C@@H](O)[C@H]5O)[C@@H](O)[C@H](O)[C@H]4O)cc3O2)cc1O [hesperidin, (2S)-5-hydroxy-2-(3-hydroxy-4-methoxyphenyl)-7-[(2S,3R,4S,5S,6R)-3,4,5-trihydroxy-6-[[(2R,3R,4R,5R,6S)-3,4,5-trihydroxy-6-methyloxan-2-yl]oxymethyl]oxan-2-yl]oxy-2,3-dihydrochromen-4-one], which “skin surface pH” value ([1]; aged mice, 9 days topical hesperidin, compared with vehicle-treated skin) is on record?
Its value is “significantly declined”.

And the “basal transepidermal water loss rates” value ([1]; aged mice, 9 days topical hesperidin, compared with vehicle-treated skin, within normal range of young skin)?
The value was “increased slightly”.

And the “baseline SC hydration” value ([1]; aged mice, after 9 days of topical hesperidin, no different from vehicle)?
Its value is 58.80±2.27.

And the barrier recovery ([1]; at both 2 and 4 hours after acute barrier disruption of aged skin)?
Its barrier recovery is “significantly accelerated”.

And the “PCNA-positive cells per cm epidermal length” value [2]?
Its value is 2.45±0.13 cells per cm epidermal length.

And the Nrf2 expression ([3]; aged epidermis)?
Its Nrf2 expression is “upregulates”.

What about the “NHE1 mRNA levels” value [3, 13] of the same compound?
The value was “marked elevation”.

What about the “sPLA2g2f mRNA levels” value [3, 13] of the same compound?
Its value is “marked elevation”.

What about the “epidermal mBD3 mRNA levels” value ([3]; aged mice, hesperidin treatment) of the same compound?
The value was “significantly increased”.

And the “ABCA12 mRNA expression” value [3, 14]?
Its value is “marked increase”.

And the “filaggrin mRNA levels” value [3, 14]?
Its value is “significantly increased”.

What about the “loricrin mRNA levels” value [3, 14] of the same compound?
Its value is “significantly increased”.

What about the “FAS mRNA levels” value [3, 15] of the same compound?
The value was “significantly increased”.

What about the “HMGCoA mRNA levels” value [3, 15] of the same compound?
Its value is “significantly increased”.

And the “SPT1 mRNA levels” value [3, 15]?
Its value is “significantly increased”.

And the “ABCA12 mRNA expression” value ([4]; adult keratinocyte cultures)?
The value was “marked increase”.

And the “filaggrin mRNA levels” value ([4]; adult keratinocyte cultures)?
Its value is “increased”.

What about the “involucrin mRNA levels” value ([4]; adult keratinocyte cultures) of the same compound?
The value was “increased”.

What about the “loricrin mRNA levels” value ([4]; adult keratinocyte cultures) of the same compound?
The value was “increased”.

What about the CAMP/LL37 expression [4, 16] of the same compound?
The CAMP/LL37 expression was “markedly upregulated”.

And the “constitutive hBD2 mRNA expression” value [4, 16]?
The value was “no changes”.

What about the “hBD3 mRNA” value [4, 16] of the same compound?
Its value is “markedly upregulated”.

And the “density of lamellar bodies” value ([5]; aged epidermis after hesperidin treatment)?
Its value is “did not increase”.

What about the “extent of lamellar body secretion” value ([5]; aged epidermis, topical hesperidin treatment, quantitative analyses) of the same compound?
Its value is “enhanced”.

What about the “GC-induced inhibition of epidermal proliferation” value ([6]; co-applications of hesperidin with GC) of the same compound?
The value was “prevented”.

What about the “GC-induced impairment of epidermal permeability barrier homeostasis” value [6, 17] of the same compound?
The value was “prevented”.

And the “GC-induced impairment of stratum corneum (SC) integrity” value [6, 17]?
The value was “prevented”.

And the “epidermal β-glucocerebrosidase activity” value [6, 17]?
Its value is “enhanced”.

And the filaggrin expression [6, 17]?
The filaggrin expression was “significant increase”.

What about the lamellar bilayer maturation [6, 17] of the same compound?
The lamellar bilayer maturation was “accelerated”.

And the “GC-induced impairment of SC acidification / changes in skin surface pH” value ([6]; hesperidin co-applications with topical GC)?
Its value is “prevented”.

And the “epidermal glutathione reductase mRNA levels” value [7]?
The value was “increased”.

And the “epidermal superoxide dismutase mRNA levels” value [7]?
Its value is “increased”.

And the pH [8]?
Its pH is “significantly improved (lowered)”.

What about the epidermal differentiation [9] of the same compound?
Its epidermal differentiation is “stimulation”.

And the epidermal proliferation [9]?
The epidermal proliferation was “stimulation”.

What about the “lamellar body (lipid) secretion” value [9] of the same compound?
Its value is “enhanced”.

What about the “skin barrier recovery after acute barrier abrogation” value [9] of the same compound?
The value was “significantly accelerated”.

And the solubility [10]?
Its solubility is “not soluble”.

With CC(C)CCC[C@@H](C)[C@H]1CC[C@H]2[C@@H]3CC=C4C[C@@H](OS(=O)(=O)O)CC[C@]4(C)[C@H]3CC[C@]12C [CSO4, Cholesterol sulfate] as the compound, how does the pKa [11] read?
The pKa was 3.1.

With CC[C@H](C)C(=O)O[C@H]1C[C@@H](C)C=C2C=C[C@H](C)[C@H](CC[C@@H]3C[C@@H](O)CC(=O)O3)[C@H]21 [lovastatin] as the compound, how does the “effect on barrier function” value [12] read?
Its value is “produces a barrier defect”.
